# Test results as given in publication PMC5702336, “Critical Role of Hepatic Cyp450s in the Testis-Specific Toxicity of (5R)-5-Hydroxytriptolide in C57BL/6 Mice” (Frontiers in Pharmacology, 2017).
# What was measured:
# [1] = Toxicokinetics of LLDT-8 in WT and liver-Cpr KO mice after a single oral dose (plasma and tissue levels by LC-MS/MS); format: in vivo, mouse; settings: for T1/2: mean ± SD, n = 5
# Description: For toxicokinetic experiments, mice (n = 5–6/group for each time point) were treated with a single dose of LLDT-8 at (0.5 or 1.0 mg/kg) by oral gavage, creating 4 treatment groups: 0.5 mg/kg LLDT-8-treated WT and KO mice, and 1.0 mg/kg LLDT-8-treated WT and KO mice. After LLDT-8 treatment, 20 μL blood samples were collected at 5, 10, 20, 30, 45, 60, 90, 120, and 180 min from tail vein. Plasma was separated by centrifugation at 3,000 rpm for 5 min and kept at −80°C until analysis. Tissues including the liver, kidney, testes, and epididymis were also collected from individual mice at 30 and 180 min after dosing and were weighed and homogenized in saline (1.0 g wet weight/mL) on ice. LLDT-8 was then extracted from the plasma or the tissue homogenates with an equal volume of ethyl acetate and dried under nitrogen. The residues were reconstituted in 50 μL of mobile phase for analysis.
# The quantification of LLDT-8 in samples was performed on Shimadzu 20A HPLC system (Shimadzu, Kyoto, Japan) equipped with an autosampler coupled to Shimadzu 8030 triple quadrupole mass spectrometer (Shimadzu, Kyoto, Japan). Separations were conducted under isocratic conditions. The mobile phase consisting of acetonitrile and water with 0.1% formic acid (50:50, v/v) was set at a flow rate of 0.2 mL/min. An electrospray interface in negative ionization mode was used. ESI source parameters were as followed: high purity drying-gas (N2) flow rate 8 L/min, temperature 400°C, nebulizer pressure 25 psi. Multiple reaction monitoring (MRM) was used to quantify LLDT-8 (m/z 421.20 [M+COO]- → 45.10, fragmentor 110 eV, collision energy −20 eV). Analytical data were processed using the labsolution software package (Shimadzu, Kyoto, Japan) consisting of qualitative and quantitative software.
# Standard curves for LLDT-8 were prepared by spiking known amounts of the LLDT-8 standard into plasma or tissue homogenate samples prepared from untreated mice. LLDT-8 concentrations in biological samples were determined by comparisons with standard curves. Pharmacokinetics were calculated using Kinetica software (version 4.4.1; Thermo Fisher Scientific Inc, Woburn, MA).
# mice testes = assay: Testicular toxicity comparison between triptolide and LLDT-8 (15 days by gavage, H&E); format: in vivo, mouse; settings: 0.5 mg/kg by gavage for 15 days
# Description: For toxicity experiments, mice (n = 3 for each group) were treated with tritpilide (0.125, 0.25, 0.5mg/kg), LLDT-8 (0.125, 0.25, 0.5mg/kg) consecutively administered by gavage for 15 days. The control group received saline. Mice were sacrificed on the 15th day post-administration and blood, liver, kidney, spleen, testis and epididymis were collected. The main lobe of liver, kidney, spleen and epididymis were fixed in 10% neutral buffered formalin for histological examination, the left testicle was fixed in Davidson’s buffer for 16 hours followed by 10% neutral buffered formalin. Tissue sections were stained with hematoxylin and eosin (H&E). Remaining tissues were stored at -80 °C for RNA and protein extraction.
# Supplementary Figure S1 Comparison of testicular toxicity between triptolide(TL) and LLDT-8. Mice (n=3) were weighted before sacrificed on the 15th day post-administration of triptolide, LLDT-8 or saline. The testes were collected and weighted. […] (G-H) Comparison of epididymis weight between triptolide and LLDT-8. Significant difference was determined by one-way Anova, mean ± SD. * p<0.05, *** p<0.001 vs Saline group. # p<0.05, ## p<0.01, ### p<0.001 vs T8 group at the same dosage.
# mice = tested on: mice; design: method as in Zhou et al., 2005; settings: p.o., ref Zhou et al., 2005; cited from earlier work
# [2] = KO mice, plasma, 1.0 mg/kg single oral dose
# [3] = WT mice, plasma, 1.0 mg/kg single oral dose
smiles,measurement,setting,value
"CC(C)[C@]12O[C@H]1[C@@H]1O[C@]13[C@]1(O[C@H]1C[C@@]1(O)C4=C(CC[C@]31C)C(=O)OC4)[C@@H]2O [LLDT-8, (5R)-5-hydroxytriptolide]","LLDT-8 levels in liver, kidney, testis and epididymis of KO mice relative to WT mice",[1]; 30 min after 1.0 mg/kg oral dose,2–3 folds
same,AUC,[1]; [2],753.52 ± 76.39 [ng/ml] × h
same,CL (oral clearance),[1]; [2],22.2 ± 2 mL/min/kg
same,Cmax,[1]; [2],57.97 ± 8.28 ng/mL
same,Tmax,[1]; [2],19.8 ± 6.6 min
same,T1/2,[1]; [2],35.4 ± 3.6 min
same,CL (oral clearance),[1]; [3],68.8 ± 8.83 mL/min/kg
same,Cmax,[1]; [3],29.95 ± 2.81 ng/mL
same,Tmax,[1]; [3],10.2 ± 0 min
same,T1/2,[1]; [3],18.6 ± 1.8 min
same,clearance in KO mice compared to WT mice,[1]; single oral dose,marked decrease
same,increase in AUC in KO mice,"[1]; single oral dose, KO vs WT",3.1 folds to WT mice
same,increase in Cmax in KO mice,"[1]; single oral dose, KO vs WT",1.9 folds to WT mice
same,increase in half-life in KO mice,"[1]; single oral dose, KO vs WT",1.9 folds to WT mice
same,testis morphology (H&E),mice testes,did not obviously alter the normal morphology of testes
same,LD50,mice,9.3 mg/kg
